The text below walks through data of article PMC6950293, “A Rapid Extraction Method Combined with a Monoclonal Antibody-Based Immunoassay for the Detection of Amatoxins” (Toxins, 2019).

The test system of one data set is mAb AMA9C12. Nature of the data set: indirect competitive ELISA (cELISA) with mAb AMA9C12. Format: binding, mouse. A general note: An ELISA detects its analyte on a solid surface through an enzyme-linked reagent.
For the next data set, the system named is mAb AMA9G3. Nature of the data set: indirect competitive ELISA (cELISA) with mAb AMA9G3. The note with it: for working range of detection (estimated as IC30 to IC80): AMA9G3. Type of data set: binding, mouse.
The test system of data set [1] is polyclonal antibody (pAb). To be noted: Bühlmann Assay ref 15; cited from earlier work.
Another data set has as its system mAb. To be noted: another mAb, different coupling strategy ref 16; cited from earlier work.
The test system of data set [2] is single chain variable fragment of a mAb. The note with it: single chain variable fragment of a mAb ref 24; cited from earlier work.
The subject of the next data set is humans. The note with it: humans ref 7; cited from earlier work.
Another data set has as its system mice. The note with it: mice ref 6; cited from earlier work.
Where [3] appears, read: mAb AMA9C12, coating antigen PERI-AMA-BSA, triplicate.
Where [4] appears, read: mAb AMA9C12, (IC50 α-AMA)/(IC50 test inhibitor) × 100.
[5] abbreviates: mAb AMA9G3, coating antigen PERI-AMA-BSA, triplicate.
The mark [6] stands for this setting: mAb AMA9G3, (IC50 α-AMA)/(IC50 test inhibitor) × 100.

In brackets after ≈: the same amount, converted by molar mass. Read-outs that look alike come from different tables or passages of the source. *1 amine or outer side, *2 acyl side, *3 side chain or, on linkers, in order; H or OH if unused. Where a SMILES comes first, the peptide text is derived from it. Bridges are numbered along the chain shown (N, C = ends). [ ]: non-standard residue; d: D form. ξ: configuration not given here. Adda = CO[C@@H](Cc1ccccc1)[C@@H](C)/C=C(C)/C=C/[C@H](N[*:1])[C@H](C)C(=O)[*:2]; Trp(2-yl) = O=C([C@H](Cc1c([*:3])[nH]c2ccccc12)N[*:1])[*:2]; dAsp(3S-Me) = C[C@H](C(=O)[*:3])[C@@H](N[*:1])C(=O)[*:2]; ξTrp(2-yl) = O=C(C(Cc1c([*:3])[nH]c2ccccc12)N[*:1])[*:2]; Leu(4R-OH,5-OH) = C[C@](O)(CO)C[C@H](N)C(=O)O; d(γGlu) = O=C(O)[C@@H](CCC(=O)[*:2])N[*:1]; X1 = CC(O)(CO)CC(N[*:1])C(=O)[*:2]; cisHyp = O=C(O)[C@@H]1C[C@H](O)CN1; ξAsp(3ξ-OH) = NC(C(=O)O)C(O)C(=O)O; Hyp = O=C(O)[CH]1C[CH](O)CN1; NMeDha = C=C(NC)C(=O)O Some results are limits rather than exact numbers.

The IC50 is the concentration that gives 50% inhibition. As usually defined, the LD50 is the dose expected to kill half of the subjects tested.

As to `C/C=C1/C(=O)N[C@@H](C(=O)O)[C@H](C)C(=O)N[C@@H](CCCNC(=N)N)C(=O)N[C@@H](/C=C/C(C)=C/[C@H](C)[C@H](Cc2ccccc2)OC)[C@H](C)C(=O)N[C@@H](C(=O)O)CCC(=O)N1C` [nodularin], in the data set on mAb AMA9C12, the “Cross Reactivity (%)” value was less than 0.3% and the IC50 was greater than 1 µg/mL. In the data set with mAb AMA9G3, the “Cross Reactivity (%)” value is reported as less than 0.3% and the IC50 was greater than 1 µg/mL.

`C[C@@H]1NC(=O)[C@H](C[C@@](C)(O)CO)NC(=O)[C@@H]2Cc3c([nH]c4ccccc34)SC[C@H](NC(=O)[C@@H]([C@H](C)O)NC1=O)C(=O)N1C[C@@H](O)C[C@H]1C(=O)N[C@@H](C)C(=O)N2` [phalloidin] (cyclo(A[dT]C[cisHyp]A[Trp(2-yl)][Leu(4R-OH,5-OH)]); thioether 3-6): the IC50 in the data set on mAb AMA9C12 (setting [3]) and in the data set with mAb AMA9G3 (setting [5]) was greater than 1 µg/mL each time. Besides, the “Cross Reactivity (%)” value with mAb AMA9C12 (setting [4]) is recorded as less than 0.3%; in the data set with mAb AMA9G3 (setting [6]), less than 0.3%; in data set [1], “Not detected”.

Turning to `CC[C@H](C)[C@@H]1NC(=O)CNC(=O)[C@@H]2Cc3c([nH]c4cc(O)ccc34)[S@+]([O-])C[C@H](NC(=O)CNC1=O)C(=O)N[C@@H](CC(N)=O)C(=O)N1C[C@H](O)C[C@H]1C(=O)N[C@@H]([C@@H](C)[C@@H](O)CO)C(=O)N2` [α-amanitin], the “competitive inhibition / binding (in words)” value with mAb AMA9C12 (mAb AMA9C12) and in the data set on mAb AMA9G3 (mAb AMA9G3) was “competitively inhibited” throughout. Moreover, the IC50 was 0.00266 ± 0.00018 µg/mL (≈ 0.00289 µM) in the data set with mAb AMA9C12 (setting [3]); 0.066 µg/mL (≈ 0.0718 µM) in the data set with mAb; 0.077 µg/mL (≈ 0.0838 µM) in data set [2]; 0.00157 ± 7e-05 µg/mL (≈ 0.00171 µM) in the data set on mAb AMA9G3 (setting [5]); “≈ 1.6 ng mL^−1” in the data set on mAb AMA9G3 (mAb AMA9G3, coating antigen PERI-AMA-BSA, triplicate, listed as α-AMA). Besides, the “Cross Reactivity (%)” value (in the data set with mAb AMA9C12 (setting [4]); in the data set on mAb AMA9G3 (setting [6]); in data set [1]) was 100% throughout. Also, in the data set with humans, the dose severely toxic was 0.3 mg/kg. Besides, in the data set with mAb AMA9G3, the “working range of detection (estimated as IC30 to IC80)” value was 0.0007 to 0.0031 µg/mL. Further, the LD50 in the data set on mice was 0.1 mg/kg.

As for `NCc1cc(=O)[nH]o1` [muscimol], the 50% inhibitory concentration (IC50) with mAb AMA9C12 (setting [3]) and in the data set on mAb AMA9G3 (setting [5]) was greater than 1 µg/mL throughout. Further, the “Cross Reactivity (%)” value with mAb AMA9C12 (setting [4]) and with mAb AMA9G3 (setting [6]) was less than 0.3% in each case.

Take `C=C1C(=O)N[C@H](C)C(=O)N[C@@H](CC(C)C)C(=O)N[C@@H](C(=O)O)[C@H](C)C(=O)N[C@@H](CCCNC(=N)N)C(=O)N[C@@H](/C=C/C(C)=C/[C@H](C)[C@H](Cc2ccccc2)OC)[C@H](C)C(=O)N[C@@H](C(=O)O)CCC(=O)N1C` [microcystin-LR] (R[Adda][d(γGlu)][NMeDha][dA]L[dAsp(3S-Me)]-OH; lactam N-7): in the data set on mAb AMA9C12, the “Cross Reactivity (%)” value is less than 0.3% and the half-maximal inhibitory concentration (IC50) is greater than 1 µg/mL. In addition, in the data set on mAb AMA9G3, the “Cross Reactivity (%)” value was less than 0.3% and the 50% inhibitory concentration (IC50) is greater than 1 µg/mL.

Take `N[C@H](C(=O)O)c1cc(=O)[nH]o1` [ibotenic acid]: the IC50 with mAb AMA9C12 (setting [3]) and in the data set with mAb AMA9G3 (setting [5]) was greater than 1 µg/mL each time. For the same compound, the “Cross Reactivity (%)” value in the data set on mAb AMA9C12 (setting [4]) and in the data set on mAb AMA9G3 (setting [6]) was less than 0.3% each time.

In the case of `CC1NC(=O)C2CC(O)CN2C(=O)C2CSc3[nH]c4ccccc4c3CC(NC1=O)C(=O)NC(CC(C)(O)CO)C(=O)NC(C(C)C)C(=O)NC(C(O)C(=O)O)C(=O)N2` (stereo not drawn) [phallacidin] (cyclo([ξAsp(3ξ-OH)]C[Hyp]A[ξTrp(2-yl)][X1]V); thioether 2-5; configuration not given here), the half-inhibitory concentration (IC50) in the data set with mAb AMA9C12 (setting [3]) and with mAb AMA9G3 (setting [5]) was greater than 1 µg/mL throughout. The “Cross Reactivity (%)” value is recorded as less than 0.3% in the data set on mAb AMA9C12 (setting [4]), less than 0.3% in the data set on mAb AMA9G3 (setting [6]) and “Not detected” in data set [1].

For the compound `CN(C)CCc1c[nH]c2cccc(OP(=O)(O)O)c12` [psilocybin], the IC50 in the data set on mAb AMA9C12 (setting [3]) and in the data set on mAb AMA9G3 (setting [5]) was greater than 1 µg/mL throughout. Also, the “Cross Reactivity (%)” value in the data set with mAb AMA9C12 (setting [4]) and in the data set with mAb AMA9G3 (setting [6]) was less than 0.3% in each case.

Turning to `CC[C@H](C)[C@@H]1NC(=O)CNC(=O)[C@@H]2Cc3c([nH]c4cc(O)ccc34)[S+]([O-])C[C@H](NC(=O)CNC1=O)C(=O)N[C@@H](CC(=O)O)C(=O)N1CC(O)C[C@H]1C(=O)N[C@@H]([C@@H](C)[C@@H](O)CO)C(=O)N2` (stereo partly drawn) [β-amanitin], the “competitive inhibition / binding (in words)” value in the data set with mAb AMA9C12 (mAb AMA9C12) is listed as “no reduction in signal response”; with mAb AMA9G3 (mAb AMA9G3), “competitively inhibited”. Moreover, the IC50 was greater than 1 µg/mL in the data set on mAb AMA9C12 (setting [3]); 0.097 µg/mL (≈ 0.105 µM) with mAb; 0.115 µg/mL (≈ 0.125 µM) in data set [2]; 0.0242 ± 0.0062 µg/mL (≈ 0.0263 µM) with mAb AMA9G3 (setting [5]); 0.024 µg/mL (≈ 0.0261 µM) in the data set with mAb AMA9G3 (mAb AMA9G3, coating antigen PERI-AMA-BSA, triplicate, listed as β-AMA). In addition, the “Cross Reactivity (%)” value was less than 0.3% in the data set on mAb AMA9C12 (setting [4]), 6.5% in the data set on mAb AMA9G3 (setting [6]) and 0.1% in data set [1]. Also, in the data set on mAb AMA9G3, the “working range of detection (estimated as IC30 to IC80)” value was 0.0036 to 0.1291 µg/mL.
